Experimental data from US10807985B2 (Blueprint Medicines Corporation, priority 2013, dated 2020).
pIC50: −log10 of the molar value.

Key:
[1] = target: KIT D816V kinase activity (KIT autophosphorylation at tyrosine 719) in HMC1.2 cells (Homo sapiens (Human), UniProt P10721, D816V/V560G); experiment: HMC1.2 autophosphorylation assay (phospho-Y719 c-KIT AlphaLISA); format: cell-based; conditions: HMC1.2 mast cell leukemia cell line (KIT V560G, D816V), 90 minutes compound; read-out: INH-KIT-PHOS-HMC1.2
[2] = target: D816V KIT (Homo sapiens (Human), UniProt P10721, D816V); experiment: KIT D816V assay at Km (Caliper electrophoretic mobility shift); conditions: biochemical, 15 uM ATP (Km), 90 minutes at 25 C; read-out: INH KIT D816V
Sequence of D816V KIT (P10721 26-976 D816V): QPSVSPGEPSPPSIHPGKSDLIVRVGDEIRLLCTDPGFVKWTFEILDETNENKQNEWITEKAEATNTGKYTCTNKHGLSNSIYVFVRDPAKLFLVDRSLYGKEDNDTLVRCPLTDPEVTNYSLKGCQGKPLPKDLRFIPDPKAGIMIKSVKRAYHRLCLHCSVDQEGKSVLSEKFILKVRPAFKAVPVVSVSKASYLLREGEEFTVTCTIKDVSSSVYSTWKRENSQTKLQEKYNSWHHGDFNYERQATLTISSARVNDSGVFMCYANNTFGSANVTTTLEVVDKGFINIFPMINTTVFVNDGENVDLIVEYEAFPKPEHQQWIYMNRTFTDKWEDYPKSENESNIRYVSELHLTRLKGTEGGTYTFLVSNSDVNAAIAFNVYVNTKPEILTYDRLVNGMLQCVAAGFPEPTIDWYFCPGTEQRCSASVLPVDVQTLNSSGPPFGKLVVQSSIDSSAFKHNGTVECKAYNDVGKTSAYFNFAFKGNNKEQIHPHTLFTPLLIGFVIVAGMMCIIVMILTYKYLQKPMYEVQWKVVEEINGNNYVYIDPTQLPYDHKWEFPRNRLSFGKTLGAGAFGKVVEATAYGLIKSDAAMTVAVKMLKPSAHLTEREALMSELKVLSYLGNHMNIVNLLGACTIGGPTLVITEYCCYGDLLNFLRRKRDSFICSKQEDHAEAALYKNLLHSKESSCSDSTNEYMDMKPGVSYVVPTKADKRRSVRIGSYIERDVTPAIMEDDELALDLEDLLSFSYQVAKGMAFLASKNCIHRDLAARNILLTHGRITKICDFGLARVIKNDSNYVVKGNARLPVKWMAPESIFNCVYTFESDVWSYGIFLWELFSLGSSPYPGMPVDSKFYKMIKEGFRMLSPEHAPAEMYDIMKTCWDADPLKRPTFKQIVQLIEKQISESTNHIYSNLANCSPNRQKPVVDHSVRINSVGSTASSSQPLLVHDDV

Sequence of KIT D816V kinase activity (KIT autophosphorylation at tyrosine 719) in HMC1.2 cells (P10721 26-976 V560G/D816V): as the sequence (P10721 26-976 D816V) above, with V535G counted along it

| Compound | pIC50 [1] | pIC50 [2] |
| --- | --- | --- |
| Cn1cc(-c2cc3c(N4CCN(c5ncc([C@](C)(O)c6ccc(F)cn6)cn5)CC4)ncnn3c2)cn1 [Compound 53] | 5.00 to 6.00 | 7.00 to 8.00 |
| Cc1ccc(-c2cc3c(N4CCN(c5ncc([C@@](C)(O)c6ccc(F)cc6)cn5)CC4)ncnn3c2)cc1 [Compound 59] | 6.00 to 7.00 | 7.00 to 8.00 |
| Cn1cc(-c2cc3ncnc(N4CCN(c5ncc(C(C)(C)c6ccc(F)cc6)cn5)CC4)n3n2)cn1 [Compound 42] | 5.00 to 6.00 | 7.00 to 8.00 |
| C[C@@](O)(c1ccc(F)cc1)c1cnc(N2CCN(c3ncnn4cc(-c5ccc(F)cc5)cc34)CC2)nc1 [Compound 64] | 6.00 to 7.00 | 7.00 to 8.00 |
| CC[C@@](O)(c1ccc(F)cc1)c1cnc(N2CCN(c3ncnn4cc(-c5cnn(C)c5)cc34)CC2)nc1 [Compound 70] | > 7.30 | 8.00 to 9.00 |
| Cn1cc(-c2cc3c(N4CCN(c5ncc([C@@](C)(O)c6c(F)cccc6F)cn5)CC4)ncnn3c2)cn1 [Compound 92] | > 7.30 | 8.00 to 9.00 |
| COc1cccc(-c2cc3c(N4CCN(c5ncc([C@@](C)(O)c6ccc(F)cc6)cn5)CC4)ncnn3c2)c1 [Compound 101] | 7.00 to 7.30 | 7.00 to 8.00 |
| C[C@H](c1ccc(F)cc1)c1cnc(N2CCN(c3ncnn4cc(-c5cnn(C)c5)cc34)C[C@H]2CO)nc1 [Compound 74] | 7.00 to 7.30 | 8.00 to 9.00 |
| Cn1cc(-c2cc3c(N4CCN(c5ncc([C@H](N)c6ccc(F)cc6)cn5)CC4)ncnn3c2)cn1 [Compound 28] | > 7.30 | 8.00 to 9.00 |
| Cn1cc(-c2cc3c(N4CCN(c5ncc([C@](C)(O)c6ccccc6)cn5)CC4)ncnn3c2)cn1 [Compound 24] | 6.00 to 7.00 | 8.00 to 9.00 |
| COc1ccc(-c2cc3c(N4CCN(c5ccccc5)CC4)ncnn3c2)cc1OC [Compound 5] | 5.00 to 6.00 | 7.00 to 8.00 |
| Cn1cc(-c2cn3ncnc(N4CCN(c5ncc(C(C)(O)c6ccc(F)cc6)cn5)CC4)c3c2Cl)cn1 (stereo in doubt) [Compound 107, (S)-1-(2-(4-(5-chloro-6-(1-methyl-1H-pyrazol-4-yl)pyrrolo[1,2-f][1,2,4]triazin-4-yl)piperazin-1-yl)pyrimidin-5-yl)-1-(4-fluorophenyl)ethanol] | 5.00 to 6.00 | < 7.00 |
| Cn1cc(-c2cc3c(N4CCN(c5ncc([C@](O)(c6ccc(F)cc6)C6CC6)cn5)CC4)ncnn3c2)cn1 [Compound 103] | 6.00 to 7.00 | 8.00 to 9.00 |
| Cn1cc(-c2cc3c(N4CCN(c5ncc([C@H](N)c6ccccc6)cn5)CC4)ncnn3c2)cn1 [Compound 13, (R)-(2-(4-(6-(1-methyl-1H-pyrazol-4-yl)pyrrolo[2,1-f][1,2,4]triazin-4-yl)piperazin-1-yl)pyrimidin-5-yl)(phenyl)methanamine] | 6.00 to 7.00 | 8.00 to 9.00 |
| Cn1cc(-c2cc3c(N4CCN(c5ccccc5)CC4)ncnn3c2)cn1 [Compound 1] |  | < 7.00 |
| Cn1cc(-c2cn3ncnc(N4CCN(c5ncc([C@@](C)(O)c6ccc(F)cc6)cn5)CC4)c3c2Cl)cn1 [Compound 108] | 5.00 to 6.00 | < 7.00 |
| C[C@H](O)Cn1cc(-c2cc3c(N4CCN(c5ncc(Sc6ccccc6F)cn5)CC4)ncnn3c2)cn1 [Compound 105] | > 7.30 | 8.00 to 9.00 |
| Cc1ccc(-c2cc3c(N4CCN(c5ncc([C@@](C)(O)c6ccc(F)cc6)cn5)CC4)ncnn3c2)cn1 [Compound 60] | > 7.30 | 8.00 to 9.00 |
| C[C@@H](c1ccc(F)cc1)c1cnc(N2CCN(c3ncnn4cc(-c5cnn(C)c5)cc34)C[C@H]2CO)nc1 [Compound 73] | > 7.30 | 8.00 to 9.00 |
| Cc1ccc(-c2cc3c(N4CCN(c5ncc([C@](C)(O)c6ccc(F)cc6)cn5)CC4)ncnn3c2)s1 [Compound 81] | 5.00 to 6.00 | 7.00 to 8.00 |
| Cn1cc(-c2cc3c(N4CCN(c5ncc(Oc6ccc(F)cc6)cn5)CC4)ncnn3c2)cn1 [Compound 15] | 6.00 to 7.00 | 7.00 to 8.00 |
| Cn1cc(-c2cc3c(N4CCN(c5ncc(C(C)(C)c6c(F)cc(F)cc6F)cn5)CC4)ncnn3c2)cn1 [Compound 106] | > 7.30 | 8.00 to 9.00 |
| Cn1cc(-c2cn3ncnc(N4CCN(c5ncc([C@@](C)(O)c6ccc(F)cc6)cn5)CC4)c3c2F)cn1 [Compound 90] | 5.00 to 6.00 | < 7.00 |
| C=C(c1ccc(F)cc1)c1cnc(N2CCN(c3ncnn4cc(-c5cnn(C)c5)cc34)CC2)nc1 [Compound 23] | 6.00 to 7.00 | 7.00 to 8.00 |
| Cn1cc(-c2cc3c(N4CCN(c5ncc([C@](C)(O)c6ccccc6F)cn5)CC4)ncnn3c2)cn1 [Compound 48] | > 7.30 | 8.00 to 9.00 |
| Cc1cc(-c2cc3c(N4CCN(c5ncc([C@](C)(O)c6ccc(F)cc6)cn5)CC4)ncnn3c2)no1 (single isomer, unassigned) [Compound 51] |  | 7.00 to 8.00 |
| Cc1cc(F)ccc1[C@](C)(O)c1cnc(N2CCN(c3ncnn4cc(-c5cnn(C)c5)cc34)CC2)nc1 [Compound 80] |  | 7.00 to 8.00 |
| C[C@](N)(c1ccccc1)c1cnc(N2CCN(c3ncnn4cc(-c5cn[nH]c5)cc34)CC2)nc1 (single isomer, unassigned) [Compound 12] | > 7.30 |  |

Further lines, results first:

| pIC50 [1] | pIC50 [2] | Compound |
| --- | --- | --- |
| 6.00 to 7.00 | 8.00 to 9.00 | Cn1cc(-c2cc3c(N4CCN(c5ncc([C@@](C)(O)c6ccc(F)cn6)cn5)CC4)ncnn3c2)cn1 [Compound 54] |
| 6.00 to 7.00 | 8.00 to 9.00 | C[C@@H]1CN(c2ncnn3cc(-c4cnn(C)c4)cc23)CCN1c1ncc(Cc2ccccc2)cn1 [Compound 8] |
| 6.00 to 7.00 | 8.00 to 9.00 | Cn1cc(-c2cc3c(N4CCN(c5ccc(C(O)c6ccccc6)cn5)CC4)ncnn3c2)cn1 (stereo not drawn) [Compound 11] |
| 6.00 to 7.00 | 8.00 to 9.00 | CC[C@H](c1ccc(F)cc1)c1cnc(N2CCN(c3ncnn4cc(-c5cnn(C)c5)cc34)CC2)nc1 (single isomer, unassigned) [Compound 40] |
| 6.00 to 7.00 | 8.00 to 9.00 | Cc1c(-c2cc3c(N4CCN(c5ncc(Cc6ccccc6)cn5)[C@H](C)C4)ncnn3c2)cnn1C [Compound 19] |
| > 7.30 | 8.00 to 9.00 | Cn1cc(-c2cc3c(N4CCN(c5ncc([C@@H](N)c6ccc(F)cc6)cn5)CC4)ncnn3c2)cn1 [Compound 27] |
| 7.00 to 7.30 | > 9.00 | Cn1cc(-c2cc3c(N4CCN(c5ncc([C@](C)(O)c6c(F)cccc6F)cn5)CC4)ncnn3c2)cn1 [Compound 91] |
| > 7.30 | > 9.00 | Cn1cc(-c2cc3c(N4CCN(c5ncc([C@@](C)(O)c6ccc(Cl)cc6)cn5)CC4)ncnn3c2)cn1 [Compound 83] |
| 7.00 to 7.30 | > 9.00 | Cn1cc(-c2cc3c(N4CCN(c5ncc([C@@](O)(CF)c6ccc(F)cc6)cn5)CC4)ncnn3c2)cn1 [Compound 95] |
| > 7.30 | > 9.00 | Cn1cc(-c2cc3c(N4CCN(c5ncc(Sc6ccccc6F)c(N)n5)CC4)ncnn3c2)cn1 [Compound 56] |
| > 7.30 | > 9.00 | Cn1cc(-c2cc3c(N4CCN(c5ncc([C@@](C)(N)c6ccc(F)cc6F)cn5)CC4)ncnn3c2)cn1 [Compound 85] |
| > 7.30 | > 9.00 | Cn1cc(-c2cc3c(N4CCN(c5ncc([C@](C)(N)c6c(F)cc(F)cc6F)cn5)CC4)ncnn3c2)cn1 [Compound 113] |
| > 7.30 | > 9.00 | Cn1cc(-c2cc3c(N4CCN(c5ncc([C@@](C)(N)c6c(F)cc(F)cc6F)cn5)CC4)ncnn3c2)cn1 [Compound 114] |
